# Laboratory results published in patent US9486502B2, “Methods of administering interferon gamma to absorb fluid from the subretinal space” (The United States of America, as represented by the …, priority 2008, dated 2016).
# Columns and labels:
# hfRPE cells [1] = test: BrdU incorporation assay, hfRPE proliferation; format: cell-based, human; conditions: for effect on the IFNγ effect on hfRPE proliferation: added one hour prior to IFNγ; for effect on hfRPE proliferation (BrdU incorporation): 0.5-80 ng/ml
# Procedure: BrdU incorporation was performed as described in Li, R. et al., 2007, Invest Ophthalmol Vis Sci, 48, 5722-5732, incorporated by reference in its entirety herein. IFNγ, TNFα, and IL-1β were obtained from Peprotech, Rocky Hill, N.J., and Universal Type I Interferon (cat: 11200-1) or human interferon beta la were from PBL biomedical laboratories (New Brunswick, N.J.). Cumulative effects were measured by adding VEGF165, EGF and bFGF (Peprotech), and PDGF-BB (R & D Systems) with IFNγ. Anti-human IFNγ R1 blocking antibody (R & D Systems, Minneapolis, Minn.), JAK inhibitor I, AG490, or JAK3 inhibitor II (EMD Biosciences, Gibbstown, N.J.) was added to the cells one hour prior to the addition of IFNγ. SFM was used as the negative control and SFM supplemented with 5% serum was used as positive control. After treatment for 48 hours, RPE cells were incubated with BrdU for 24 hours. The proliferation rate was evaluated using a Cell proliferation ELISA BrdU Kit (Roche, Ind.). Quadruplicate wells were used for each condition and the experiments were repeated at least two times using cell cultures from different donors. Cell viability was evaluated using a Live/Dead Viability/Cytotoxicity Kit (Invitrogen).
# hfRPE monolayers = test: fluid transport (JV, TEP, RT) across hfRPE monolayers in modified Üssing chamber; format: cell-based, human; conditions: for effect on the effects of IFNγ on JV: Rp-8-Br-cAMPS 2 μM pretreatment
# Text: Confluent monolayers of hfRPE cultured on transwells were mounted in a modified Üssing chamber and transepithelial water flow measurements (JV) were made with a capacitance probe technique as described previously in Maminishkis, A., et al., Invest Ophthalmol Vis Sci, 2006, 47, 3612-3624; Shi, G., et al., Invest Ophthalmol Vis Sci, 2008, 49, 4620-4630; Edelman, J. L., et al., Invest Ophthalmol Vis Sci, 1991, 32, 3033-3040; Jiang, C., et al., Science, 1993, 262, 424-427; and Maminishkis, A., et al., Invest Ophthalmol Vis Sci, 2002, 43, 3555-3566, each incorporated herein by reference in its entirety.
# Tissue viability was ascertained by recording transepithelial potential (TEP) and total tissue resistance (RT). It should be noted that the solution composition changes in this chamber were relatively slow (≈1-2 chamber volumes per minute) and the data sampling rate was once per minute, more than two orders of magnitude slower than the sampling rate in the electrophysiology chamber (see below). Therefore it was not possible to record fast changes, in seconds or minutes, in JV, TEP, or RT. After addition of IFNγ to the apical or basal baths, steady-state JV, TEP, and RT were recorded for 20-30 minutes. In control experiments, successive additions of IFNγ were made to test for the repeatability and reversibility of responses. To block IFNγ effects, RPE cells were incubated for 30-60 minutes with a blocking antibody against IFNγ R1, JAK inhibitor I, PKA inhibitors (H-89, EMD Biosciences; RP-8-Br-cAMPS, Sigma-Aldrich), nitric oxide synthase inhibitor (aminoguanidine hydrochloride, Sigma-Aldrich), P38 MAPK inhibitors (SB203580 or SB20290), or CHX. Other components of this signaling pathway were studied using P38 MAPK inhibitors (SB203580 and SB202190). Relatively specific Cl channel inhibitors, CFTRinh-172 or DIDS (EMD Biosciences, La Jolla, Calif.), were used to block cAMP or Ca^2+-activated Cl channels; experiments with CFTRinh-172 were performed as described in Muanprasat, C., et al., J Gen Physiol, 2004, 124, 125-137, incorporated herein by reference in its entirety. In chronic experiments, paired hfRPE tissues with matched RT values were incubated for 4-24 hours with IFNγ or CHX. The subsequent changes in JV, RT, and TEP were measured in Ringer's solution or serum free cell culture media as previously described in Shi, G., et al., Invest Ophthalmol Vis Sci, 2008 and Maminishkis, A., et al., Invest Ophthalmol Vis Sci, 2006, 47, 3612-3624, each incorporated herein by reference in its entirety. Intracellular levels of NO were elevated with 1-Hydroxy-2-oxo-3-(3-aminopropyl)-3-isopropyl-1-triazene (NOC-5, Enzo Life Sciences, Plymouth, Pa.). 8-Br-cGMP was purchased from Sigma-Aldrich.
# rat RPE = test: in vivo retinal re-attachment assay (OCT)
# Procedure: All animal experiments were conducted in compliance with the ARVO Statement for the use of Animals in Ophthalmic and Vision Research, and the protocol was approved by the Animal Care and Use Committee of the National Institutes of Health. The procedures have been described in detail in Maminishkis, A., et al., Invest Ophthalmol Vis Sci, 2006, 47, 3612-3624, incorporated by reference in its entirety herein. Briefly, retinal detachments were created in long-Evans rats by injecting 0.5 to 3 μl of modified phosphate-buffered saline (MPBS) Ringer's solution into the sub-retinal space (SRS), which separates the photoreceptor outer segments and the apical membrane of the RPE. In the control portion of each experiment (at 0-70 minutes after creation of the retinal detachment), the rate of change of bleb volume was measured. The control period of “constant” volume was defined by JV≦2 μl hr cm over at least 40 minutes. Any control injections that exceeded this threshold rate were rejected from subsequent analysis.
# IFNγ was dissolved in MPBS, mixed with Celluvisc® solution (1:1) and applied as eye-drops (0.4 mL). Optical coherence tomography (OCT) imaging (Institute of Applied Physics, Russian Academy of Science, Nizhniy Novgorod, Russia) was used to measure the time course of the detachment volume change.
# A previously tested in vivo rodent model of retinal detachment was used to measure the effect of IFNγ on re-absorption following retinal detachment, as described in Example 11 and in Maminishkis, A., et al., Invest Ophthalmol Vis Sci, 2002, 43, 3555-3566, incorporated herein by reference in its entirety. Initial detachment was created by injecting approximately 1 μl of osmotically-balanced, modified phosphate-buffered saline (MPBS) Ringer's solution into the extracellular space, i.e. the sub-retinal space (SRS). After stabilization of the detachment, IFNγ (40 μl of 100 ng/ml) was added to the anterior surface of the eye via eye drops (Celluvisc®). A series of 3D OCT images were recorded at different time points.
# [2] = multiple instillations per day for months; literature; cited from earlier work
# hfCHC cells = test: BrdU incorporation assay, human fetal choroidal cell proliferation; format: cell-based
# hfRPE cells [3] = test: wound healing assay, hfRPE migration; format: cell-based, human; conditions: 48 hours, proliferation suppressed with mitomycin C
# Procedure: The wound healing assay was used to study the effects of inflammatory cytokines on hfRPE cell migration, as described previously in Li, R., et al. Invest Ophthalmol Vis Sci, 2007, 48, 5722-5732, incorporated herein by reference in its entirety. Cell proliferation was suppressed by incubation with 10 μg/ml mitomycin C (Sigma) for 2 hours before all migration experiments. A circular denuded area (7 mm in diameter) was made in each well using a custom designed cell scraper. After incubation with various inflammatory cytokines for 48 hours, cells were fixed with cold methanol and stained with ethidium homodimer-1 (EthD-1, Invitrogen) according to the manufacturer's instructions. Cell migration was quantified by counting the average number of cells that migrated into the denuded area in 16 microscope fields surrounding the circumference of the denuded area. Each condition was tested in triplicate and repeated using cells from different donors.
# [4] = Phase I study of topical interferon gamma-1b in CME secondary to uveitis (OCT macular thickness); format: in vivo, human; conditions: patients with CME secondary to uveitis, topical instillation(s), OCT post-instillation
# Text: To test whether cystoid macular edema (CME), secondary to uveitis, is caused by the disequilibrium of the Jak/Stat and mTor signal transduction pathways in the retinal pigment epithelium (RPE), interferon gamma-1β topically applied in human patients. Five participants with CME secondary to uveitis receive a topical ocular instillation of interferon gamma-1b in a Phase I, non-randomized, prospective, uncontrolled, dose-escalation, single-center study. The study involves a one-time instillation or series of instillations of interferon gamma-1b on the cornea and measurement of a response with optical coherence tomography (OCT) over a three hour period.
# A 25% decrease in macular thickness is observed at a post-instillation as compared to baseline. In the study, the first two participants receive one instillation (each instillation contains […] in 0.05 mL solution) on the cornea at time zero, the next two participants receive two instillations, 10 minutes apart, for a total dosage of 20 μg, and the final participant receives three instillations, 10 minutes apart, for a total of 30 μg. OCT will be obtained at −60 minutes, −30 minutes and just before the instillation(s). […]
# Participants with CME secondary to uveitis are treated with ocular instillation(s) of interferon gamma-1b. […] The effect on the retinal thickness is measured using OCT measurements as indicated below. […]
molecule,measurement,setting,value
"N#C/C(=C\c1ccc(O)c(O)c1)C(=O)NCc1ccccc1 [AG490, reference compound]",effect on the IFNγ effect on hfRPE proliferation,hfRPE cells [1],block
"COc1cc2ncnc(Nc3ccc(O)c(Br)c3)c2cc1OC [JAK3, reference compound]",effect on the IFNγ effect on hfRPE proliferation,hfRPE cells [1],not
Nc1ncnc2c1nc(Br)n2C1OC2COP(O)(=S)OC2C1O (stereo not drawn) [Rp-8-Br-cAMPS],effect on the effects of IFNγ on JV,hfRPE monolayers,completely blocked
same,effect on the effects of IFNγ on JV,hfRPE monolayers; listed as Rp-8-Br-cAMPs,blocked
same,effect on baseline JV,"hfRPE monolayers; Rp-8-Br-cAMPS 2 μM, approximately 40 minutes",no effect
same,JV after Rp-8-Br-cAMPS,"hfRPE monolayers; six experiments, steady-state baseline 8.9±1.2",10.4±2.0 μl·cm^−2·hr^−1
same,reduction in IFNγ-induced absorption rate,"rat RPE; PKA inhibitor alone injected into subretinal space, FIG. 23D",~40%
same,effect on IFNγ induced decrease in detachment volume,rat RPE; pre-injection of 50 μM PKA inhibitor alone,partially blocked
IFNα,effect of type I IFN on hfRPE proliferation,hfRPE cells [1]; data not shown,no effect
same,side effects reported from topical administration,[2],follicular conjunctivis and conjunctival injection
IL-1β: inflammatory cytokine obtained from Peprotech; ICM component,effect on hfRPE proliferation (BrdU incorporation),hfRPE cells [1],no significant effect
same,effect on hfCHC (human fetal choroidal) cell proliferation,hfCHC cells,significantly stimulated
same,effect on hfRPE cell migration,hfRPE cells [3],no significant effect
JAK inhibitor I,effect on the IFNγ effect on hfRPE proliferation,hfRPE cells [1],block
same,effect on base level of fluid transport (JV),hfRPE monolayers; JAK inhibitor I 5 μM alone,no significant effect
same,effect on IFNγ increase in JV,"hfRPE monolayers; JAK inhibitor I 5 μM, 0.5-1 hours prior to IFNγ",significantly blocked
TNFα,effect on hfRPE proliferation (BrdU incorporation),hfRPE cells [1],weak stimulatory effect
same,concentration at which the stimulatory effect reached statistical significance,hfRPE cells [1]; P <0.05,80 ng/mL
same,effect on hfCHC (human fetal choroidal) cell proliferation,hfCHC cells,significantly stimulated
same,effect on hfRPE cell migration,hfRPE cells [3],no significant effect
"interferon gamma-1b: biologic response modifier, single chain polypeptide containing 140 amino acids (Actimmune®) (protein, UniProt P01579 24-161, looked up, interferon gamma-1b) Interferon gamma: QDPYVKEAENLKKYFNAGHSDVADNGTLFLGILKNWKEESDRKIMQSQIVSFYFKLFKNFKDDQSIQKSVETIKEDMNVKFFNSNKKKRDDFEKLTNYSVTDLNVQRKAIHELIQVMAELSPAAKTGKRKRSQMLFRG",decrease in (central) macular thickness versus baseline,[4],25%
